The record followed here is patent publication US9856279B2 (AGIOS PHARMACEUTICALS, INC, priority 2011, dated 2018).

SMILES strings stand for the structures. A value given as a limit tells only on which side of the number the result lay.

The target of test [1] is IDH1 R132H (Homo sapiens, UniProt O75874, R132H). Description: Assay for IDH1 R132H inhibitors (NADPH/aKG, resazurin detection). The note with it: enzyme assay of Example 12; read-out: IDH1R132H IC50. The class given is biochemical. In short, it runs like this:
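Read-out is resorufin fluorescence (Ex544/Em590) 5 min after adding a 30 μM resazurin detection mix. Before that, mutant enzyme (0.2 μg/ml in its mix) ran 50 min at room temperature with compound, 8 uM NADPH and 2 mM aKG (mix levels) in Tris pH 7.5 with NaCl, MgCl2, BSA.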
On the technique in general: Alamar Blue is a resazurin reagent that responds to reducing activity.

Test [2] relates to HT1080 cells. Description: Cellular assay for IDH1m inhibitors: inhibition of 2-HG production (LC-MS, 48 hours) in HT1080 cells. The class given is cell-based. The note with it: Homo sapiens, HT-1080; inhibition of 2-HG production, HT1080 cells; read-out: HT1080 IC50. In short, it runs like this: (§1)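 Read-out: 2-HG in culture medium by LC-MS after 48 h compound exposure; IC50 = 50% reduction vs DMSO control. Cells plated 5000/well in DMEM/10% FBS, 37 °C, 5% CO2; DMSO 0.2% final.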

For test [3], the system named is U87MG cells. Put plainly: Cellular assay for IDH1m inhibitors: inhibition of 2-HG production (LC-MS, 48 hours) in U87MG cells. The class given is cell-based. The following applies: Homo sapiens, U-87 MG, inhibition of 2-HG production, U87R132H cells; read-out: U87R132H IC50. A digest of the protocol:
as §1

Chain of IDH1 R132H (O75874 whole entry R132H): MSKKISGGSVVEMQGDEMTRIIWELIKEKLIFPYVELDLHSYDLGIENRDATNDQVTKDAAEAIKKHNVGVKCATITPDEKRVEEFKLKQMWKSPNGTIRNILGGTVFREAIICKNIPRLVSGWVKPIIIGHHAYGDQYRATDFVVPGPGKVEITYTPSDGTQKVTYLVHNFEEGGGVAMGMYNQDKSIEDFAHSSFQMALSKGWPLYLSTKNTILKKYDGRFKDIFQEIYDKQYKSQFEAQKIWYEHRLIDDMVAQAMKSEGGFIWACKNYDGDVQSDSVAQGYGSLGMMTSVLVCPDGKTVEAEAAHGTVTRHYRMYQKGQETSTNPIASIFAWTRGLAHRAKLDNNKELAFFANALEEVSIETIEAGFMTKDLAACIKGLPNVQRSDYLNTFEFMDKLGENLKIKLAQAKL

For `COCCC(=O)N1CCN(c2nc(C3CC3)c(Nc3ccnc4ccccc34)cc2C#N)C[C@H]1C` [Compound 356, (R)-6-cyclopropyl-2-(4-(3-methoxypropanoyl)-3-methylpiperazin-1-yl)-5-(quinolin-4-ylamino)nicotinonitrile], the values for the IC50 in test [1], in test [2] and in test [3] were less than 500 nM, 1000 to 10000 nM and 1000 to 10000 nM, respectively.
`C=Cc1cc(Nc2cc(C#N)c(N3CCN(C(=O)CCO)[C@H](C)C3)nc2C2CC2)ncn1` [Compound 617, (R)-6-cyclopropyl-2-(4-(3-hydroxypropanoyl)-3-methylpiperazin-1-yl)-5-(6-vinylpyrimidin-4-ylamino)nicotinonitrile]: the 50% inhibitory concentration (IC50) in test [1], in test [2] and in test [3] was less than 500 nM throughout.
With `COCCC(=O)N1CCN(c2nc(C3CC3)c(-c3cn(C)c(=O)c4ccccc34)cc2C#N)C[C@H]1C` [Compound 418, (R)-6-cyclopropyl-2-[4-(3-methoxy-propionyl)-3-methyl-piperazin-1-yl]-5-(2-methyl-1-oxo-1,2-dihydro-isoquinolin-4-yl)-nicotinonitrile], the 50% inhibitory concentration (IC50) in test [1], in test [2] and in test [3] was less than 500 nM throughout.
In the case of `C=Cc1ncc2c(-c3cc(C#N)c(N4CCN(C(=O)CCOC)[C@H](C(C)C)C4)nc3C3CC3)cccc2n1` [Compound 634, (R)-6-cyclopropyl-2-(3-isopropyl-4-(3-methoxypropanoyl)piperazin-1-yl)-5-(2-vinylquinazolin-5-yl)nicotinonitrile], the IC50 in test [1], in test [2] and in test [3] was less than 500 nM in each case.
`C=CC(=O)Nc1cccc(C(C)Oc2cc(C#N)c(N3CCN(C(=O)CCOC)[C@H](C)C3)nc2C2CC2)c1` (stereo partly drawn) [Compound 407, N-(3-(1-(5-cyano-2-cyclopropyl-6-((R)-4-(3-methoxypropanoyl)-3-methylpiperazin-1-yl)pyridin-3-yloxy)ethyl)phenyl)acrylamide]: the IC50 in test [1], in test [2] and in test [3] was less than 500 nM each time.
With `C=Cc1cc(-c2cc(C#N)c(N3CCN(C(=O)COC)[C@H](C(C)C)C3)nc2C2CC2)ccn1` [Compound 726, (R)-2-cyclopropyl-6-(3-isopropyl-4-(2-methoxyacetyl)piperazin-1-yl)-2′-vinyl-3,4′-bipyridine-5-carbonitrile], the 50% inhibitory concentration (IC50) in test [1], in test [2] and in test [3] was less than 500 nM each time.
For `C=CS(=O)(=O)Nc1cccc(-c2cc(C#N)c(N3CCN(C(=O)C4CC4)[C@H](C4CC4)C3)nc2C2CC2)c1` [Compound 451], the IC50 (commonly the concentration needed to halve the response being measured) was less than 500 nM in test [1], 1000 to 10000 nM in test [2] and 1000 to 10000 nM in test [3].
Consider `C=Cc1cc(Nc2c(C3CC3)nc(N3CCN(C(=O)CCO)[C@H](C(C)C)C3)c(C#N)c2C)ccn1` [Compound 799, (R)-6-cyclopropyl-2-(4-(3-hydroxypropanoyl)-3-isopropylpiperazin-1-yl)-4-methyl-5-((2-vinylpyridin-4-yl)amino)nicotinonitrile], for which the concentration for half-maximal inhibition (IC50) in test [1], in test [2] and in test [3] was less than 500 nM each time.
On to `C=Cc1cc(Nc2cc(C#N)c(N3CCN(C(=O)CCO)[C@H](C(C)C)C3)nc2C2CC2)ccn1` [Compound 754, (R)-6-cyclopropyl-2-(4-(3-hydroxypropanoyl)-3-isopropylpiperazin-1-yl)-5-(2-vinylpyridin-4-ylamino)nicotinonitrile], for which the IC50 in test [1], in test [2] and in test [3] was less than 500 nM in each case.
Consider `COCCC(=O)N1CCN(c2nc(C3CC3)c(-c3ccc(C)c(F)c3)c(C)c2C#N)C[C@H]1C` [Compound 266, (R)-6-cyclopropyl-5-(3-fluoro-4-methylphenyl)-2-(4-(3-methoxypropanoyl)-3-methylpiperazin-1-yl)-4-methylnicotinonitrile], for which the results for the concentration for half-maximal inhibition (IC50) in test [1], in test [2] and in test [3] were less than 500 nM, 1000 to 10000 nM and 1000 to 10000 nM, respectively.
On to `C=Cc1cc(Nc2cc(C#N)c(N3CCN(C(=O)COC)[C@H](C(C)C)C3)nc2C2CC2)ccn1` [Compound 743, (R)-6-cyclopropyl-2-(3-isopropyl-4-(2-methoxyacetyl)piperazin-1-yl)-5-((2-vinylpyridin-4-yl)amino)nicotinonitrile], for which the IC50 in test [1], in test [2] and in test [3] was less than 500 nM throughout.
As to `COCCC(=O)N1CCN(c2nc(C3CC3)c(OCc3cccc(NC(=O)CBr)c3)cc2C#N)C[C@H]1C` [Compound 382, (R)-2-bromo-N-(3-((5-cyano-2-cyclopropyl-6-(4-(3-methoxypropanoyl)-3-methylpiperazin-1-yl)pyridin-3-yloxy)methyl)phenyl)acetamide], the values for the IC50 in test [1], in test [2] and in test [3] were less than 500 nM, less than 500 nM and 500 to 1000 nM, respectively.
Consider `C=CC(=O)N1CCC=C(c2c(C3CC3)nc(N3CCN(C(=O)CCO)[C@H](C4CC4)C3)c(C#N)c2C)C1` [Compound 755, (R)-5-(1-acryloyl-1,2,5,6-tetrahydropyridin-3-yl)-6-cyclopropyl-2-(3-cyclopropyl-4-(3-hydroxypropanoyl)piperazin-1-yl)-4-methylnicotinonitrile], for which the half-maximal inhibitory concentration (IC50) in test [1], in test [2] and in test [3] was less than 500 nM throughout.
As for `C=Cc1cc(-c2cc(C#N)c(N3CCN(C(=O)CCOC)[C@H](C4CC4)C3)nc2C2CC2)cnn1` [Compound 674, (R)-6-cyclopropyl-2-(3-cyclopropyl-4-(3-methoxypropanoyl)piperazin-1-yl)-5-(6-vinylpyridazin-4-yl)nicotinonitrile], the IC50 in test [1], in test [2] and in test [3] was less than 500 nM throughout.
Turning to `C=CC(=O)N(C)c1cccc(-c2cc(C#N)c(N3CCN(C(=O)CCOC)[C@H](C)C3)nc2C2CC2)c1` [Compound 427], the IC50 in test [1], in test [2] and in test [3] was less than 500 nM in each case.
On to `COCCC(=O)N1CCN(c2nc(C3CC3)c(Nc3ccnc(Cl)c3)cc2C#N)C[C@H]1C` [Compound 643, (R)-5-((2-chloropyridin-4-yl)amino)-6-cyclopropyl-2-(4-(3-methoxypropanoyl)-3-methylpiperazin-1-yl)nicotinonitrile], for which the IC50 in test [1] is less than 500 nM; in test [2] it was less than 500 nM; in test [3], 500 to 1000 nM.
Consider `C[C@@H]1CN(c2nc(C3CC3)c(-c3ccc(F)cc3)cc2C#N)CCN1C(=O)C1CC1` [Compound 550, (R)-2-(4-(cyclopropanecarbonyl)-3-methylpiperazin-1-yl)-6-cyclopropyl-5-(4-fluorophenyl)nicotinonitrile], for which the half-inhibitory concentration (IC50) in test [1] is 500 to 1000 nM; in test [2] it was less than 500 nM; in test [3] it was less than 500 nM.
With `COCCC(=O)N1CCN(c2nc(C3CC3)c(-c3cc4ccccc4nc3Cl)cc2C#N)C[C@H]1C` [Compound 360, (R)-5-(2-chloro-quinolin-3-yl)-6-cyclopropyl-2-[4-(3-methoxy-propionyl)-3-methyl-piperazin-1-yl]-nicotinonitrile], the results for the half-maximal inhibitory concentration (IC50) in test [1], in test [2] and in test [3] were less than 500 nM, 1000 to 10000 nM and 1000 to 10000 nM, respectively.
Take `C=Cc1cc(-c2cc(C#N)c(N3CCN(C(=O)C4CC4)[C@H](C4CC4)C3)nc2C2CC2)c2ccncc2n1` [Compound 689, (R)-2-(4-(cyclopropanecarbonyl)-3-cyclopropylpiperazin-1-yl)-6-cyclopropyl-5-(2-vinyl-1,7-naphthyridin-4-yl)nicotinonitrile]: the IC50 in test [1], in test [2] and in test [3] was less than 500 nM throughout.
Turning to `COCCC(=O)N1CCN(c2nc(C3CC3)c(-c3ccc(F)cc3)c(C)c2C#N)C[C@H]1C1CC1` [Compound 299, (R)-6-cyclopropyl-2-(3-cyclopropyl-4-(3-methoxypropanoyl)piperazin-1-yl)-5-(4-fluorophenyl)-4-methylnicotinonitrile], the IC50 in test [1] was less than 500 nM; in test [2], 500 to 1000 nM; in test [3] it was 500 to 1000 nM.
Turning to `CCC(Oc1cc(C#N)c(N2CCN(C(=O)CCOC)[C@H](C)C2)nc1C1CC1)c1ccccc1` (stereo partly drawn) [Compound 308, 6-cyclopropyl-2-((R)-4-(3-methoxypropanoyl)-3-methylpiperazin-1-yl)-5-(1-phenylpropoxy)nicotinonitrile], the concentration for half-maximal inhibition (IC50) in test [1] was less than 500 nM; in test [2], 1000 to 10000 nM; in test [3] it was 1000 to 10000 nM.
In the case of `COCCC(=O)N1CCN(c2nc(C3CC3)c(OCc3ccc(CO)cc3)cc2C#N)C[C@H]1C` [Compound 301, (R)-6-cyclopropyl-5-(4-(hydroxymethyl)benzyloxy)-2-(4-(3-methoxypropanoyl)-3-methylpiperazin-1-yl)nicotinonitrile], the IC50 was less than 500 nM in test [1], 1000 to 10000 nM in test [2] and 1000 to 10000 nM in test [3].
In the case of `C=Cc1cc(Nc2cc(C#N)c(N3CCN(C(=O)C[C@H]4CCO4)[C@H](C4CC4)C3)nc2C2CC2)ccn1` [Compound 751, 6-cyclopropyl-2-((R)-3-cyclopropyl-4-(2-((R)-oxetan-2-yl)acetyl)piperazin-1-yl)-5-(2-vinylpyridin-4-ylamino)nicotinonitrile], the IC50 in test [1], in test [2] and in test [3] was less than 500 nM each time.
